Source: patent US6914045B2, “Glycopeptide antibiotics” (Wyeth Holdings Corporation, priority 2001, dated 2005)
Values after ≈ are worked out from the molar mass of the structure shown.

Experiments:
[1] = anatomic pathology (histopathology of heart and kidney) in mice; assay type: in vivo; conditions: CD-1 mice, 20 mg/kg intravenously daily for 9 days, necropsy day 10, microscopic histopathology
Experimental: Samples of tissues from necropsied mice were formalin-fixed, paraffin-embedded, sectioned, stained with hematoxylin and eosin, and examined microscopically. Histopathologic findings were recorded. These findings were subjectively graded on a scale corresponding to slight, mild, moderate, marked and severe as compared to untreated controls.

[2] = test system: Streptococcus pneumoniae (GC 1894); assay: acute lethal infection in mice; assay type: in vivo; conditions: female CD-1 mice, intraperitoneal challenge, intravenous 30 min. after infection, 7 day survival
Summary of the method: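 Female CD-1 mice (20+/−2 gm) were infected intraperitoneally with enough bacteria, suspended in trypticase soy broth or hog gastric mucin, to kill untreated controls within 24-48 hr. Compound in saline or 5% dextrose was given intravenously 30 min post-infection, five mice per dose. ED50 came from pooled 7 day survival of 3 tests.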

Staphylococcus sp. = assay: in vitro antibacterial evaluation, MIC by broth dilution; assay type: cell-based; conditions: broth dilution, 18 hours at 35° C.
Summary of the method: (§1)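 MIC = lowest antibiotic concentration preventing visible growth; inoculum 5×10^5 CFU/mL; drug range 64-0.06 μg/mL; Muller-Hinton II […]; NCCLS M7-A2 guidance.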

Escherichia coli = assay: as above; assay type: cell-based; conditions: 18 hours at 35° C.; for MIC Escherichia coli (GC 4560): strain GC 4560
Summary of the method: as §1

Enterococcus sp. = assay: as above; assay type: cell-based; conditions: broth dilution, 18 hours at 35° C.; for MIC Enterococcus faecalis (ATCC 29212): strain ATCC 29212; for MIC Enterococcus faecalis (GC 2242): strain GC 2242; for MIC Enterococcus faecium (GC 2243): strain GC 2243; for MIC Enterococcus faecalis (GC 2691): strain GC 2691; for MIC Enterococcus faecalis (GC 3059): strain GC 3059; for MIC Enterococcus faecalis (GC 4552): strain GC 4552; for MIC Enterococcus faecalis (GC 4553): strain GC 4553; for MIC Enterococcus faecalis (GC 4554): strain GC 4554; for MIC Enterococcus faecium (GC 4556): strain GC 4556; for MIC Enterococcus faecium (GC 4557): strain GC 4557; for MIC Enterococcus avium (GC 4558): strain GC 4558; for MIC Enterococcus faecalis (GC 6189): strain GC 6189
Summary of the method: as §1

Streptococcus sp. = assay: as above; assay type: cell-based; conditions: broth dilution, 18 hours at 35° C.; for MIC Streptococcus pneumoniae (ATCC 6301): strain ATCC 6301; for MIC Streptococcus pneumoniae (GC 1894): strain GC 1894; for MIC Streptococcus pneumoniae (GC 4565): strain GC 4565
Summary of the method: as §1

[3] = clinical pathology (serum clinical chemistry) in mice; assay type: in vivo; conditions: CD-1 mice, 20 mg/kg intravenously daily for 9 days, sera day 10
Experimental: 20-day-old CD-1 mice were divided into a vehicle control group (5 mice) and a treatment group (5 mice). Samples of glycopeptide antibiotics were administered at 20 mg/kg intravenously daily for 9 days.

N=C1NCC(C(O)C2NC(=O)C(Cc3ccc(OC4OC(CO)C(OC5OC6COC7(OC6C(O)C5O)C5CC6CC(C5)CC7C6)C(O)C4O)cc3)NC(=O)C(CC3CCCCC3)NC(=O)CNC(=O)C(CO)NC(=O)C(C(O)C3CNC(=N)N3C3OC(CO)C(O)C(O)C3O)NC2=O)N1 (stereo not drawn) [Example 106, Cyclo[3-cyclohexylalanyl-O-[4-O-[4,6-O-(2-adamantylidene)hexopyranosyl]hexopyranosyl]-tyrosyl-3-(2-iminoimidazolidin-4-yl)seryl-3-(3-hexopyranosyl-2-iminoimidazolidin-4-yl)-serylserylglycyl]]
Anatomical Pathology (Day 10), Heart [1]: 0
median effective dose (ED50), Streptococcus pneumoniae (GC 1894) [2]: 0.07 mg/kg
MIC Coagulase Negative Staphylococcus (GC 4547) (Staphylococcus sp.): 0.5 to 2 µg/mL
MIC Coagulase Negative Staphylococcus (GC 4548) (Staphylococcus sp.): 0.25 to 1 µg/mL
MIC Coagulase Negative Staphylococcus (GC 4549) (Staphylococcus sp.): <0.12 to 1 µg/mL
MIC Coagulase Negative Staphylococcus (GC 4551) (Staphylococcus sp.): 0.25 to 1 µg/mL
MIC Coagulase Negative Staphylococcus (GC 6257) (Staphylococcus sp.): 0.25 µg/mL (≈ 0.176 µM)
MIC Staphylococcus aureus (ATCC 29213) (Staphylococcus sp.): 0.5 to 2 µg/mL
MIC Staphylococcus aureus (GC 1131) (Staphylococcus sp.): 0.5 to 2 µg/mL
MIC Staphylococcus aureus (GC 3051) (Staphylococcus sp.): 0.5 to 2 µg/mL
MIC Staphylococcus aureus (GC 3053) (Staphylococcus sp.): 0.5 to 2 µg/mL
MIC Staphylococcus aureus (GC 4541) (Staphylococcus sp.): 0.5 to 2 µg/mL
MIC Staphylococcus aureus (GC 4542) (Staphylococcus sp.): 0.25 to 1 µg/mL
MIC Staphylococcus aureus (GC 4544) (Staphylococcus sp.): 0.25 to 2 µg/mL
MIC Staphylococcus aureus (GC 4545) (Staphylococcus sp.): 0.5 to 2 µg/mL
MIC Staphylococcus aureus-SMITH (GC 4543) (Staphylococcus sp.): 0.25 to 1 µg/mL
MIC Staphylococcus haemolyticus (GC 4546) (Staphylococcus sp.): 0.5 to 1 µg/mL
MIC Staphylococcus haemolyticus (GC 4546) (Staphylococcus sp.; strain GC 4546): 0.5 to 1 µg/mL
MIC Coagulase Negative Staphylococcus (GC 4547) (Staphylococcus sp.; strain GC 4547): 0.5 to 2 µg/mL
MIC Coagulase Negative Staphylococcus (GC 6257) (Staphylococcus sp.; strain GC 6257): 0.25 µg/mL (≈ 0.176 µM)
MIC Escherichia coli (GC 4560) (Escherichia coli): 0.5 to 2 µg/mL
MIC Enterococcus faecalis (ATCC 29212) (Enterococcus sp.): 0.5 to 2 µg/mL
MIC Enterococcus faecalis (GC 2242) (Enterococcus sp.): 0.5 to 2 µg/mL
MIC Enterococcus faecium (GC 2243) (Enterococcus sp.): 0.5 to 2 µg/mL
MIC Enterococcus faecalis (GC 2691) (Enterococcus sp.): 1 to 2 µg/mL
MIC Enterococcus faecalis (GC 3059) (Enterococcus sp.): 1 to 2 µg/mL
MIC Enterococcus faecalis (GC 4552) (Enterococcus sp.): 1 to 2 µg/mL
MIC Enterococcus faecalis (GC 4553) (Enterococcus sp.): 1 to 2 µg/mL
MIC Enterococcus faecalis (GC 4554) (Enterococcus sp.): 1 to 2 µg/mL
MIC Enterococcus faecium (GC 4556) (Enterococcus sp.): 0.5 to 2 µg/mL
MIC Enterococcus faecium (GC 4557) (Enterococcus sp.): 0.5 to 2 µg/mL
MIC Enterococcus avium (GC 4558) (Enterococcus sp.): 1 to 2 µg/mL
MIC Enterococcus faecalis (GC 6189) (Enterococcus sp.): 1 to 2 µg/mL
MIC Streptococcus pneumoniae (ATCC 6301) (Streptococcus sp.): <0.03 µg/mL
MIC Streptococcus pneumoniae (GC 1894) (Streptococcus sp.): <0.03 µg/mL
MIC Streptococcus pyogenes (GC 4563) (Streptococcus sp.; strain GC 4563): <0.03 µg/mL
MIC Streptococcus agalactiae (GC 4564) (Streptococcus sp.; strain GC 4564): <0.03 µg/mL
MIC Streptococcus pneumoniae (GC 4565) (Streptococcus sp.): <0.03 µg/mL

CC(c1ccccc1)C1NC(=O)CNC(=O)C(CO)NC(=O)C(C(O)C2CNC(=N)N2C2OC(CO)C(O)C(O)C2O)NC(=O)C(C(O)C2CNC(=N)N2)NC(=O)C(Cc2ccc(OC3OC(CO)C(OC4OC5COC6(OC5C(O)C4O)C4CC5CC(C4)CC6C5)C(O)C3O)cc2)NC1=O (stereo not drawn) [Example 105, Cyclo[glycyl-β-methylphenylalanyl-O-[4-O-[4,6-O-(2-adamantylidene)hexopyranosyl]hexopyranosyl]tyrosyl-3-(2-iminoimidazolidin-4-yl)seryl-3-(3-hexopyranosyl-2-iminoimidazolidin-4-yl)serylseryl]]
Anatomical Pathology (Day 10), Heart [1]: +++
Anatomical Pathology (Day 10), Kidney [1]: +++
Clinical Chemistry (Day 10) % of Control, ALT [3]: +480%
Clinical Chemistry (Day 10) % of Control, BUN [3]: +35%
median effective dose (ED50), Streptococcus pneumoniae (GC 1894) [2]: 0.04 mg/kg
MIC Coagulase Negative Staphylococcus (GC 4547) (Staphylococcus sp.): 0.5 to 1 µg/mL
MIC Coagulase Negative Staphylococcus (GC 4548) (Staphylococcus sp.): <0.5 to 1 µg/mL
MIC Coagulase Negative Staphylococcus (GC 4549) (Staphylococcus sp.): 0.5 to 1 µg/mL
MIC Coagulase Negative Staphylococcus (GC 4551) (Staphylococcus sp.): <0.5 to 1 µg/mL
MIC Coagulase Negative Staphylococcus (GC 6257) (Staphylococcus sp.): 0.5 to 1 µg/mL
MIC Staphylococcus aureus (ATCC 29213) (Staphylococcus sp.): <0.5 to 1 µg/mL
MIC Staphylococcus aureus (GC 1131) (Staphylococcus sp.): 0.25 to 1 µg/mL
MIC Staphylococcus aureus (GC 3051) (Staphylococcus sp.): 0.5 to 1 µg/mL
MIC Staphylococcus aureus (GC 3053) (Staphylococcus sp.): 1 to 2 µg/mL
MIC Staphylococcus aureus (GC 4541) (Staphylococcus sp.): <0.5 to 1 µg/mL
MIC Staphylococcus aureus (GC 4542) (Staphylococcus sp.): 0.5 to 1 µg/mL
MIC Staphylococcus aureus (GC 4544) (Staphylococcus sp.): 0.25 to 2 µg/mL
MIC Staphylococcus aureus (GC 4545) (Staphylococcus sp.): <0.5 to 1 µg/mL
MIC Staphylococcus aureus-SMITH (GC 4543) (Staphylococcus sp.): 0.25 to 1 µg/mL
MIC Staphylococcus haemolyticus (GC 4546) (Staphylococcus sp.): <0.5 to 1 µg/mL
MIC Staphylococcus haemolyticus (GC 4546) (Staphylococcus sp.; strain GC 4546): <0.5 to 1 µg/mL
MIC Coagulase Negative Staphylococcus (GC 4547) (Staphylococcus sp.; strain GC 4547): 0.5 to 1 µg/mL
MIC Coagulase Negative Staphylococcus (GC 4548) (Staphylococcus sp.; strain GC 4548): <0.5 to 1 µg/mL
MIC Coagulase Negative Staphylococcus (GC 4549) (Staphylococcus sp.; strain GC 4549): 0.5 to 1 µg/mL
MIC Coagulase Negative Staphylococcus (GC 4551) (Staphylococcus sp.; strain GC 4551): <0.5 to 1 µg/mL
MIC Coagulase Negative Staphylococcus (GC 6257) (Staphylococcus sp.; strain GC 6257): 0.5 to 1 µg/mL
MIC Escherichia coli (GC 4559) (Escherichia coli; strain GC 4559): 32 µg/mL (≈ 22.4 µM)
MIC Escherichia coli (GC 4560) (Escherichia coli): 0.5 to 2 µg/mL
MIC Enterococcus faecalis (ATCC 29212) (Enterococcus sp.): 1 to 2 µg/mL
MIC Enterococcus faecalis (GC 2242) (Enterococcus sp.): 0.5 to 2 µg/mL
MIC Enterococcus faecium (GC 2243) (Enterococcus sp.): 1 to 2 µg/mL
MIC Enterococcus faecalis (GC 2691) (Enterococcus sp.): 1 to 2 µg/mL
MIC Enterococcus faecalis (GC 3059) (Enterococcus sp.): 1 to 2 µg/mL
MIC Enterococcus faecalis (GC 4552) (Enterococcus sp.): 1 to 2 µg/mL
MIC Enterococcus faecalis (GC 4553) (Enterococcus sp.): 1 to 2 µg/mL
MIC Enterococcus faecalis (GC 4554) (Enterococcus sp.): 1 to 2 µg/mL
MIC Enterococcus faecium (GC 4556) (Enterococcus sp.): 0.5 to 2 µg/mL
MIC Enterococcus faecium (GC 4557) (Enterococcus sp.): 1 to 2 µg/mL
MIC Enterococcus avium (GC 4558) (Enterococcus sp.): 1 to 2 µg/mL
MIC Enterococcus faecalis (GC 6189) (Enterococcus sp.): 1 to 2 µg/mL
MIC Streptococcus pneumoniae (ATCC 6301) (Streptococcus sp.): <0.06 µg/mL
MIC Streptococcus pneumoniae (GC 1894) (Streptococcus sp.): <0.06 µg/mL
MIC Streptococcus pneumoniae (GC 4565) (Streptococcus sp.): <0.06 µg/mL
